Test results reported in ChEMBL document CHEMBL1201861, “Genomics of Drug Sensitity in Cancer screening data, Wellcome Trust Sanger Institute”.

Key:
MC-CAR = experiment: cells; format: functional, cell-based, Homo sapiens; settings: Homo sapiens, MC-CAR;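 note: growth inhibition of the human MC-CAR cell line, read out by a cell viability assay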
Description: SANGER: Inhibition of human MC-CAR cell growth in a cell viability assay.

ARH-77 = experiment: cells; format: functional, cell-based, Homo sapiens; settings: Homo sapiens, ARH-77;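 note: growth inhibition of ARH-77 cells, read out by a cell viability assay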
Description: SANGER: Inhibition of human ARH-77 cell growth in a cell viability assay.

KOSC-2 = experiment: cells; format: functional, cell-based, Homo sapiens; settings: Homo sapiens, KOSC-2;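 note: growth inhibition of KOSC-2 cells, read out by a cell viability assay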
Description: SANGER: Inhibition of human KOSC-2 cell growth in a cell viability assay.

NCI-H2171 = experiment: cells; format: functional, cell-based, Homo sapiens; settings: Homo sapiens, NCI-H2171;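 note: growth inhibition of human NCI-H2171 cells, read out by a cell viability assay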
Description: SANGER: Inhibition of human NCI-H2171 cell growth in a cell viability assay.

CAL-39 = experiment: cells; format: functional, cell-based, Homo sapiens; settings: Homo sapiens, CAL-39;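 note: cell viability assay measuring growth inhibition of CAL-39 cells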
Description: SANGER: Inhibition of human CAL-39 cell growth in a cell viability assay.

GAMG = experiment: cells; format: functional, cell-based, Homo sapiens; settings: Homo sapiens, GAMG;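 note: cell growth inhibition measured by a viability assay in the GAMG human cell line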
Description: SANGER: Inhibition of human GAMG cell growth in a cell viability assay.

NCI-H716 = experiment: cells; format: functional, cell-based, Homo sapiens; settings: Homo sapiens, NCI-H716;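 note: growth inhibition of human NCI-H716 cells, measured by a cell viability assay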
Description: SANGER: Inhibition of human NCI-H716 cell growth in a cell viability assay.

PF-382 = experiment: cells; format: functional, cell-based, Homo sapiens; settings: Homo sapiens, PF-382
Description: SANGER: Inhibition of human PF-382 cell growth in a cell viability assay.

ESS-1 = experiment: cells; format: functional, cell-based, Homo sapiens; settings: Homo sapiens, ESS-1;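 note: growth inhibition of human ESS-1 cells, read out by a cell viability assay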
Description: SANGER: Inhibition of human ESS-1 cell growth in a cell viability assay.

EB-3 = experiment: cells; format: functional, cell-based, Homo sapiens; settings: Homo sapiens, EB-3;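 note: human EB-3 cells, growth inhibition read out via a cell viability assay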
Description: SANGER: Inhibition of human EB-3 cell growth in a cell viability assay.

Daudi = experiment: cells; format: functional, cell-based, Homo sapiens; settings: Homo sapiens, Daudi;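 note: growth inhibition of Daudi cells, read out by a viability assay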
Description: SANGER: Inhibition of human Daudi cell growth in a cell viability assay.

HLE = experiment: cells; format: functional, cell-based, Homo sapiens; settings: Homo sapiens, HLE;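 note: growth inhibition of human HLE cells, read out by a cell viability assay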
Description: SANGER: Inhibition of human HLE cell growth in a cell viability assay.

HPAF-II = experiment: cells; format: functional, cell-based, Homo sapiens; settings: Homo sapiens, HPAF-II;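 note: growth inhibition of HPAF-II cells, read out with a cell viability assay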
Description: SANGER: Inhibition of human HPAF-II cell growth in a cell viability assay.

NCI-H748 = experiment: cells; format: functional, cell-based, Homo sapiens; settings: Homo sapiens, NCI-H748;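 note: growth inhibition of NCI-H748 cells, measured by a cell viability assay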
Description: SANGER: Inhibition of human NCI-H748 cell growth in a cell viability assay.

BC1 cell line = experiment: SANGER: Inhibition of human BC-1 cell growth in a cell viability assay.; format: functional, cell-based; settings: Homo sapiens, BC1
CP50-MEL-B = experiment: cells; format: functional, cell-based, Homo sapiens; settings: Homo sapiens, CP50-MEL-B;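 note: growth inhibition of the human cell line, measured with a cell viability read-out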
Description: SANGER: Inhibition of human CP50-MEL-B cell growth in a cell viability assay.

OVCAR-5 = experiment: cells; format: functional, cell-based, Homo sapiens; settings: Homo sapiens, OVCAR-5;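 note: growth inhibition of human OVCAR-5 cells, read out with a cell viability assay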
Description: SANGER: Inhibition of human OVCAR-5 cell growth in a cell viability assay.

CAL-148 = experiment: cells; format: functional, cell-based, Homo sapiens; settings: Homo sapiens, CAL-148
Description: SANGER: Inhibition of human CAL-148 cell growth in a cell viability assay.

MDA-MB-175-VII = experiment: cells; format: functional, cell-based, Homo sapiens; settings: Homo sapiens, MDA-MB-175-VII
NY = experiment: cells; format: functional, cell-based, Homo sapiens; settings: Homo sapiens, NY
Description: SANGER: Inhibition of human NY cell growth in a cell viability assay.

WSU-NHL = experiment: cells; format: functional, cell-based, Homo sapiens; settings: Homo sapiens, WSU-NHL;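 note: growth inhibition of human WSU-NHL cells, read out with a cell viability assay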
Description: SANGER: Inhibition of human WSU-NHL cell growth in a cell viability assay.

SIG-M5 = experiment: cells; format: functional, cell-based, Homo sapiens; settings: Homo sapiens, SIG-M5;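 note: cell viability assay read-out, measuring how strongly growth of cultured human SIG-M5 cells is inhibited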
Description: SANGER: Inhibition of human SIG-M5 cell growth in a cell viability assay.

RL = experiment: cells; format: functional, cell-based, Homo sapiens; settings: Homo sapiens, RL
Description: SANGER: Inhibition of human RL cell growth in a cell viability assay.

SKG-IIIa = experiment: cells; format: functional, cell-based, Homo sapiens; settings: Homo sapiens, SKG-IIIa;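 note: cell growth inhibition, read out with a cell viability assay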
Description: SANGER: Inhibition of human SKG-IIIa cell growth in a cell viability assay.

MFE-280 = experiment: cells; format: functional, cell-based, Homo sapiens; settings: Homo sapiens, MFE-280;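 note: growth inhibition of MFE-280 cells, determined with a cell viability readout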
Description: SANGER: Inhibition of human MFE-280 cell growth in a cell viability assay.

Daoy = experiment: cells; format: functional, cell-based, Homo sapiens; settings: Homo sapiens, Daoy;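 note: daoy cell growth inhibition, read out as cell viability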
Description: SANGER: Inhibition of human Daoy cell growth in a cell viability assay.

MC-IXC = experiment: cells; format: functional, cell-based, Homo sapiens; settings: Homo sapiens, MC-IXC;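 note: growth inhibition of MC-IXC cells, read out with a cell viability assay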
Description: SANGER: Inhibition of human MC-IXC cell growth in a cell viability assay.

MKN-45 = experiment: cells; format: functional, cell-based, Homo sapiens; settings: Homo sapiens, MKN-45;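 note: growth inhibition of human MKN-45 cells, measured with a cell viability assay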
Description: SANGER: Inhibition of human MKN45 cell growth in a cell viability assay.

NCI-H322M = experiment: cells; format: functional, cell-based, Homo sapiens; settings: Homo sapiens, NCI-H322M;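 note: cell viability assay measuring inhibition of growth of human NCI-H322M cells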
Description: SANGER: Inhibition of human NCI-H322M cell growth in a cell viability assay.

CWR22R = experiment: cells; format: functional, cell-based, Homo sapiens; settings: Homo sapiens, 22Rv1;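 note: growth inhibition of 22Rv1 cells, read out with a cell viability assay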
Description: SANGER: Inhibition of human 22RV1 cell growth in a cell viability assay.

AN3-CA = experiment: cells; format: functional, cell-based, Homo sapiens; settings: Homo sapiens, AN3-CA;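 note: growth inhibition of human AN3-CA cells measured by a cell viability assay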
Description: SANGER: Inhibition of human AN3-CA cell growth in a cell viability assay.

RCM-1 = experiment: cells; format: functional, cell-based, Homo sapiens; settings: Homo sapiens, RCM-1;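 note: growth inhibition of the RCM-1 line, determined with a cell viability readout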
Description: SANGER: Inhibition of human RCM-1 cell growth in a cell viability assay.

M14 = experiment: cells; format: functional, cell-based, Homo sapiens; settings: Homo sapiens, M14;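 note: growth inhibition of M14 cells, read out with a cell viability assay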
Description: SANGER: Inhibition of human M14 cell growth in a cell viability assay.

SW1573 = experiment: cells; format: functional, cell-based, Homo sapiens; settings: Homo sapiens, SW1573;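 note: growth inhibition of SW1573 cells, read out with a cell viability assay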
Description: SANGER: Inhibition of human SW1573 cell growth in a cell viability assay.

BFTC-909 = experiment: cells; format: functional, cell-based, Homo sapiens; settings: Homo sapiens, BFTC-909
Description: SANGER: Inhibition of human BFTC-909 cell growth in a cell viability assay.

NCI-H2452 = experiment: cells; format: functional, cell-based, Homo sapiens; settings: Homo sapiens, NCI-H2452;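 note: growth inhibition of NCI-H2452 cells, read out with a cell viability assay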
Description: SANGER: Inhibition of human NCI-H2452 cell growth in a cell viability assay.

SCLC-21H = experiment: cells; format: functional, cell-based, Homo sapiens; settings: Homo sapiens, SCLC-21H;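 note: growth inhibition of cultured human SCLC-21H cells, read out with a cell viability assay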
Description: SANGER: Inhibition of human SCLC-21H cell growth in a cell viability assay.

THP-1 = experiment: cells; format: functional, cell-based, Homo sapiens; settings: Homo sapiens, THP-1;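 note: growth inhibition of THP-1 cells, read out via a cell viability assay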
Description: SANGER: Inhibition of human THP-1 cell growth in a cell viability assay.

ABC-1 = experiment: cells; format: functional, cell-based, Homo sapiens; settings: Homo sapiens, ABC-1;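 note: growth inhibition of human ABC-1 cells, read out by a cell viability assay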
Description: SANGER: Inhibition of human ABC-1 cell growth in a cell viability assay.

NCI-H1563 = experiment: cells; format: functional, cell-based, Homo sapiens; settings: Homo sapiens, NCI-H1563;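 note: growth inhibition of human NCI-H1563 cells, read out with a cell viability assay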
Description: SANGER: Inhibition of human NCI-H1563 cell growth in a cell viability assay.

HCT-116 = experiment: cells; format: functional, cell-based, Homo sapiens; settings: Homo sapiens, HCT-116
Description: SANGER: Inhibition of human HCT-116 cell growth in a cell viability assay.

SNU-449 = experiment: cells; format: functional, cell-based, Homo sapiens; settings: Homo sapiens, SNU-449
Description: SANGER: Inhibition of human SNU-449 cell growth in a cell viability assay.

Raji = experiment: cells; format: functional, cell-based, Homo sapiens; settings: Homo sapiens, Raji;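 note: cell viability assay measuring inhibition of Raji cell growth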
Description: SANGER: Inhibition of human Raji cell growth in a cell viability assay.

REH = experiment: cells; format: functional, cell-based, Homo sapiens; settings: Homo sapiens, REH;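 note: growth inhibition of REH cells determined with a cell viability read-out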
Description: SANGER: Inhibition of human REH cell growth in a cell viability assay.

SK-LU-1 = experiment: cells; format: functional, cell-based, Homo sapiens; settings: Homo sapiens, SK-LU-1;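 note: cell viability assay measuring growth inhibition of human SK-LU-1 cells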
Description: SANGER: Inhibition of human SK-LU-1 cell growth in a cell viability assay.

D-336MG = experiment: cells; format: functional, cell-based, Homo sapiens; settings: Homo sapiens, D-336MG
Description: SANGER: Inhibition of human D-336MG cell growth in a cell viability assay.

NCI-H630 = experiment: cells; format: functional, cell-based, Homo sapiens; settings: Homo sapiens, NCI-H630;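 note: growth inhibition of NCI-H630 cells, read out with a cell viability assay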
Description: SANGER: Inhibition of human NCI-H630 cell growth in a cell viability assay.

NCI-H1048 = experiment: cells; format: functional, cell-based, Homo sapiens; settings: Homo sapiens, NCI-H1048;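 note: growth inhibition of human NCI-H1048 cells, read out with a cell viability assay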
Description: SANGER: Inhibition of human NCI-H1048 cell growth in a cell viability assay.

SW 1116 = experiment: cells; format: functional, cell-based, Homo sapiens; settings: Homo sapiens, SW 1116;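 note: growth inhibition of SW1116 cells, read out with a cell viability assay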
Description: SANGER: Inhibition of human SW1116 cell growth in a cell viability assay.

Oc1ccc2ccccc2c1SSc1c(O)ccc2ccccc12
IC50 (MC-CAR): 5.71 µM
IC50 (ARH-77): > 32 µM
IC50 (KOSC-2): > 32 µM
IC50 (NCI-H2171): > 32 µM
IC50 (CAL-39): > 32 µM
IC50 (GAMG): > 32 µM
IC50 (NCI-H716): > 32 µM
IC50 (PF-382): 5.35 µM
IC50 (ESS-1): > 32 µM
IC50 (EB-3): 10.5 µM
IC50 (Daudi): 5.68 µM
IC50 (HLE): 4.52 µM
IC50 (HPAF-II): > 32 µM
IC50 (NCI-H748): > 32 µM
IC50 (BC1 cell line): > 32 µM
IC50 (CP50-MEL-B): > 32 µM
IC50 (OVCAR-5): > 32 µM
IC50 (CAL-148): > 32 µM
IC50 (MDA-MB-175-VII): > 32 µM
IC50 (NY): > 32 µM
IC50 (WSU-NHL): 5.52 µM
IC50 (SIG-M5): 2.1 µM
IC50 (RL): > 32 µM
IC50 (SKG-IIIa): > 32 µM
IC50 (MFE-280): > 32 µM
IC50 (Daoy): 3.25 µM
IC50 (MC-IXC): > 32 µM
IC50 (MKN-45): > 32 µM
IC50 (NCI-H322M): > 32 µM
IC50 (CWR22R): > 32 µM
IC50 (AN3-CA): 14.3 µM
IC50 (RCM-1): > 32 µM
IC50 (M14): > 32 µM
IC50 (SW1573): > 32 µM
IC50 (BFTC-909): > 32 µM
IC50 (NCI-H2452): > 32 µM
IC50 (SCLC-21H): > 32 µM
IC50 (THP-1): > 32 µM
IC50 (ABC-1): > 32 µM
IC50 (NCI-H1563): > 32 µM
IC50 (HCT-116): > 32 µM
IC50 (SNU-449): > 32 µM
IC50 (Raji): > 32 µM
IC50 (REH): 3.37 µM
IC50 (SK-LU-1): 18.9 µM

N#Cc1c(O)c2c(-c3ccc(-c4ccccc4O)cc3)csc2[nH]c1=O
IC50 (MC-CAR): 0.172 µM
IC50 (ARH-77): 0.141 µM
IC50 (D-336MG): > 1.02 µM
IC50 (KOSC-2): > 1.02 µM
IC50 (NCI-H2171): 0.622 µM
IC50 (NCI-H630): > 1.02 µM
IC50 (CAL-39): > 1.02 µM
IC50 (GAMG): > 1.02 µM
IC50 (NCI-H716): > 1.02 µM
IC50 (PF-382): 0.0859 µM
IC50 (ESS-1): > 1.02 µM
IC50 (EB-3): 0.293 µM
IC50 (Daudi): 0.0498 µM
IC50 (HLE): > 1.02 µM
IC50 (HPAF-II): > 1.02 µM
IC50 (NCI-H748): > 1.02 µM
IC50 (BC1 cell line): 0.0697 µM
IC50 (CP50-MEL-B): > 1.02 µM
IC50 (OVCAR-5): > 1.02 µM
IC50 (CAL-148): 0.223 µM
IC50 (MDA-MB-175-VII): > 1.02 µM
IC50 (NY): > 1.02 µM
IC50 (WSU-NHL): 0.297 µM
IC50 (SIG-M5): 0.00786 µM
IC50 (RL): > 1.02 µM
IC50 (SKG-IIIa): > 1.02 µM
IC50 (MFE-280): > 1.02 µM
IC50 (Daoy): > 1.02 µM
IC50 (MC-IXC): > 1.02 µM
IC50 (MKN-45): > 1.02 µM
IC50 (NCI-H322M): > 1.02 µM
IC50 (CWR22R): > 1.02 µM
IC50 (AN3-CA): > 1.02 µM
IC50 (RCM-1): > 1.02 µM
IC50 (M14): > 1.02 µM
IC50 (SW1573): > 1.02 µM
IC50 (BFTC-909): > 1.02 µM
IC50 (NCI-H2452): > 1.02 µM
IC50 (SCLC-21H): > 1.02 µM
IC50 (THP-1): 0.342 µM
IC50 (ABC-1): > 1.02 µM
IC50 (NCI-H1563): > 1.02 µM
IC50 (HCT-116): > 1.02 µM
IC50 (SNU-449): > 1.02 µM
IC50 (Raji): 0.67 µM
IC50 (REH): 0.104 µM
IC50 (SK-LU-1): > 1.02 µM

Cn1cnc2c(F)c(Nc3ccc(Br)cc3Cl)c(C(=O)NOCCO)cc21 [SELUMETINIB]
IC50 (KOSC-2): > 4 µM
IC50 (NCI-H630): > 4 µM
IC50 (CAL-39): 0.332 µM
IC50 (GAMG): > 4 µM
IC50 (ESS-1): > 4 µM
IC50 (NCI-H1048): > 4 µM
IC50 (HLE): > 4 µM
IC50 (HPAF-II): 3.34 µM
IC50 (CP50-MEL-B): 0.128 µM
IC50 (OVCAR-5): > 4 µM
IC50 (MDA-MB-175-VII): > 4 µM
IC50 (NY): > 4 µM
IC50 (SKG-IIIa): > 4 µM
IC50 (MFE-280): > 4 µM
IC50 (SW 1116): > 4 µM
IC50 (Daoy): > 4 µM
IC50 (MC-IXC): > 4 µM
IC50 (CWR22R): > 4 µM
IC50 (AN3-CA): > 4 µM
IC50 (RCM-1): 0.494 µM
IC50 (M14): 0.0369 µM
IC50 (SW1573): > 4 µM
IC50 (BFTC-909): > 4 µM
IC50 (NCI-H2452): > 4 µM
IC50 (ABC-1): > 4 µM
IC50 (NCI-H1563): > 4 µM
IC50 (HCT-116): 1.06 µM
IC50 (SNU-449): > 4 µM
IC50 (SK-LU-1): 3.86 µM

CN(C)C(=N)NC(=N)N [METFORMIN]
IC50 (KOSC-2): 3400 µM
IC50 (NCI-H630): > 20000 µM
IC50 (CAL-39): > 20000 µM
IC50 (GAMG): > 20000 µM
IC50 (ESS-1): > 20000 µM
IC50 (NCI-H1048): > 20000 µM
IC50 (HLE): 9860 µM
IC50 (HPAF-II): 7740 µM
IC50 (CP50-MEL-B): > 20000 µM
IC50 (OVCAR-5): > 20000 µM
IC50 (MDA-MB-175-VII): > 20000 µM
IC50 (NY): 14100 µM
IC50 (SKG-IIIa): > 20000 µM
IC50 (SW 1116): > 20000 µM
IC50 (Daoy): > 20000 µM
IC50 (MC-IXC): 7890 µM
IC50 (MKN-45): > 20000 µM
IC50 (CWR22R): 18000 µM
IC50 (AN3-CA): > 20000 µM
IC50 (RCM-1): > 20000 µM
IC50 (M14): > 20000 µM
IC50 (SW1573): > 20000 µM
IC50 (BFTC-909): > 20000 µM
IC50 (ABC-1): > 20000 µM
IC50 (NCI-H1563): 8610 µM
IC50 (HCT-116): > 20000 µM
IC50 (SNU-449): > 20000 µM
IC50 (SK-LU-1): > 20000 µM
